The target in one experiment is T1, SMARCA2 (Homo sapiens, UniProt P51531).
T1 construct: endogenous in cells
Description: SMARCA2 Cellular Degradation Assay (Western blot analysis on Jess platform). It counts as cell-based. The conditions noted are these: for DC50 / Dmax: cellular degradation; for Fold Selectivity SMARCA4/2: ratio DC50 SMARCA4 / DC50 SMARCA2. In outline:
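Lysates of cells extracted from tumors were prepared in supplemented RIPA buffer, and 5 μg total protein per capillary was analysed by capillary Western (Jess) with anti-SMARCA2 and anti-β-actin antibodies. SMARCA2 electropherogram area was background-subtracted, normalized to actin, and expressed as percent remaining versus vehicle control.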
For orientation: In western blotting, separated proteins are transferred to a membrane and probed.

The target of the next experiment is T2, SMARCA4 (Homo sapiens, UniProt P51532).
T2 construct: endogenous in cells
T2 sequence (P51532 whole entry, species assumed): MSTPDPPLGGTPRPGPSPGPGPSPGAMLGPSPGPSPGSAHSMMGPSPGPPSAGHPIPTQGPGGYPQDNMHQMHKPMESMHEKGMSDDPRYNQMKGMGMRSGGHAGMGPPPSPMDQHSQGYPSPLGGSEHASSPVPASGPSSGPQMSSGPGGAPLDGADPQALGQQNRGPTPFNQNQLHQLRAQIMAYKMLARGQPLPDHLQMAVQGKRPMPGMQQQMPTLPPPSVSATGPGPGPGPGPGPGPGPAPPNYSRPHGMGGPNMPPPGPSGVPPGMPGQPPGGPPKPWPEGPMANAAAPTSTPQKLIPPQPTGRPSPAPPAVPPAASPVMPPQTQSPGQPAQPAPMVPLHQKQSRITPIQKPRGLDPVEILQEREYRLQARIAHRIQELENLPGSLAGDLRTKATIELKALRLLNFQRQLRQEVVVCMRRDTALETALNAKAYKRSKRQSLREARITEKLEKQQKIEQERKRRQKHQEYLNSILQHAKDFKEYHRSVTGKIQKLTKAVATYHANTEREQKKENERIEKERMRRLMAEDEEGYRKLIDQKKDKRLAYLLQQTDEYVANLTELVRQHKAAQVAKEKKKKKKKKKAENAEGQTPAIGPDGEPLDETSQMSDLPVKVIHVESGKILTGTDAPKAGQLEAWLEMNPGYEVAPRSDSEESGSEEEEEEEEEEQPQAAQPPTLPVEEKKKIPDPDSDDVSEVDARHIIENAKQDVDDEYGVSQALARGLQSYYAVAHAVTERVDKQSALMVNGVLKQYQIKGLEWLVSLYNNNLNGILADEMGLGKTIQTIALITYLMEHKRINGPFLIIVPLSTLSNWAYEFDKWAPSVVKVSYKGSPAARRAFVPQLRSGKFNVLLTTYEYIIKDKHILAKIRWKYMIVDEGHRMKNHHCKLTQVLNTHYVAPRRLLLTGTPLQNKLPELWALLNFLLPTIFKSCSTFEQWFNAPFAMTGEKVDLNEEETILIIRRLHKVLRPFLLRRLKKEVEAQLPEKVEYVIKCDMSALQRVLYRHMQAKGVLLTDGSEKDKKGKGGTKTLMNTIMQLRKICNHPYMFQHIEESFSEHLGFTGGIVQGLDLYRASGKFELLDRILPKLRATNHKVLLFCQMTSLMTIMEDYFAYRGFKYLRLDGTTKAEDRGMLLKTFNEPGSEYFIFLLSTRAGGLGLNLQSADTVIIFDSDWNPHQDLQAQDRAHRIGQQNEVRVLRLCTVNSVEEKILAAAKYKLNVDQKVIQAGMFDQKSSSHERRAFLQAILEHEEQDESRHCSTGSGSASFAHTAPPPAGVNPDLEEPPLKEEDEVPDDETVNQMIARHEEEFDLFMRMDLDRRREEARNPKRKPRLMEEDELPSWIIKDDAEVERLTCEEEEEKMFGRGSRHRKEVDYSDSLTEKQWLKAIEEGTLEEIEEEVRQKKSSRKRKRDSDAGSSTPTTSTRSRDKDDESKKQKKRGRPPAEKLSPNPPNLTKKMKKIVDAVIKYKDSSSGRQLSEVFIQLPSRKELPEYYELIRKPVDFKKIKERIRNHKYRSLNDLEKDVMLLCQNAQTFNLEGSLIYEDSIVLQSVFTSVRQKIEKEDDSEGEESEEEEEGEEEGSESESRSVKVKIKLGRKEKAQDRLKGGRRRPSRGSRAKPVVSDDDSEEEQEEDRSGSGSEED
The experiment in a line: Cellular degradation assay, SMARCA4 (Table 1). The format is cell-based.

A word on the DC50: it is the concentration giving 50% degradation. Higher therefore signals degradation only at high concentration. By Dmax is commonly meant the largest share of the target that was removed. A low value points to a partial loss of target.

T1 sequence (P51531 whole entry, species assumed): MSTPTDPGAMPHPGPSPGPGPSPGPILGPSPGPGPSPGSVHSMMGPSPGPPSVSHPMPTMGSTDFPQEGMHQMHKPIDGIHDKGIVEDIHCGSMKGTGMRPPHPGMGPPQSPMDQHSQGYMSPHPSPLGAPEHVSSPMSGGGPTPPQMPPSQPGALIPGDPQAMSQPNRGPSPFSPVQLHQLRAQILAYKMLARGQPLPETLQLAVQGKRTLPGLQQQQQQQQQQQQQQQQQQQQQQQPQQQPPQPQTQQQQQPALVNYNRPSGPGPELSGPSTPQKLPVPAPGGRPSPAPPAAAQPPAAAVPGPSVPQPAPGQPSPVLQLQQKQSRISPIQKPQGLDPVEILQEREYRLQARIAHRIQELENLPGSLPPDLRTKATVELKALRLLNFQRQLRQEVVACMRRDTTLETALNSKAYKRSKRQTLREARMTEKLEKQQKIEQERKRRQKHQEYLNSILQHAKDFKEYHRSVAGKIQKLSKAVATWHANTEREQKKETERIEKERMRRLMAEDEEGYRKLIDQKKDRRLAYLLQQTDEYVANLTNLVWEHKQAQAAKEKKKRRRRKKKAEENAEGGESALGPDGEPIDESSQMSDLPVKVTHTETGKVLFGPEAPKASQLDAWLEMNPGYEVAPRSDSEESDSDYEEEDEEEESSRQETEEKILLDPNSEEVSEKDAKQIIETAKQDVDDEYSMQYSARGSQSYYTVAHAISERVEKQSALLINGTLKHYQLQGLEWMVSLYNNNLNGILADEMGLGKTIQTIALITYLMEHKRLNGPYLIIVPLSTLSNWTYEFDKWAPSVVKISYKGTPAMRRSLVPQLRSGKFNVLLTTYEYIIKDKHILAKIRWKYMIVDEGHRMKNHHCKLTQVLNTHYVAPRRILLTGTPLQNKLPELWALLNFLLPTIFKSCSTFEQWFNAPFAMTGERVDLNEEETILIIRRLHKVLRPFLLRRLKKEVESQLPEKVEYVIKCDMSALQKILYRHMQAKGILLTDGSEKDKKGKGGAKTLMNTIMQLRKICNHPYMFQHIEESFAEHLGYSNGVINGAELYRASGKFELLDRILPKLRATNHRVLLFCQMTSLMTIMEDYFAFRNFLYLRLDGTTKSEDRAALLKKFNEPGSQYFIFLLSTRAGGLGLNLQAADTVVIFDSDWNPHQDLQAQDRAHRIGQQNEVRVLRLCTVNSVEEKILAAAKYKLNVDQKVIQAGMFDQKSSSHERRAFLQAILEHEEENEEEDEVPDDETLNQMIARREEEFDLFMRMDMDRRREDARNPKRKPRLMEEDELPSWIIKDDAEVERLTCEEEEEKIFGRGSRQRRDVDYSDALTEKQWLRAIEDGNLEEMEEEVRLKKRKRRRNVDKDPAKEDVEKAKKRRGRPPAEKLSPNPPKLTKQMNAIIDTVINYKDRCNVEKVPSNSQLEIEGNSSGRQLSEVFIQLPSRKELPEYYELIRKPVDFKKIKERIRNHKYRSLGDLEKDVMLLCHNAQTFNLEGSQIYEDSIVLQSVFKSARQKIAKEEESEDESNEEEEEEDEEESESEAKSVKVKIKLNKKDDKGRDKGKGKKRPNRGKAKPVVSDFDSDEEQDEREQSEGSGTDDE

For `O=C1CC[C@H](c2ccc(N3CCC(CCN4CCC(S(=O)(=O)NCC5(c6ccccc6)CCN(c6cnnc(-c7ccccc7O)c6)CC5)CC4)CC3)cc2)C(=O)N1` (racemic) [Example 118, rac-1-(2-(1-(4-(2,6-dioxopiperidin-3-yl)phenyl)piperidin-4-yl)ethyl)-n-((1-(6-(2-hydroxyphenyl)pyridazin-4-yl)-4-phenylpiperidin-4-yl)methyl)piperidine-4-sulfonamide], on SMARCA2, the DC50 turned out to be 8.85 nM, the Dmax was found to be 84% and the “Fold Selectivity SMARCA4/2” value turned out to be 4. Also, at SMARCA4, half-maximal degradation (DC50) was put at 35.5 nM and the Dmax is 76.5%.

Take `O=C1CCC(c2ccc(N3CCC(CCN4CC5(C4)CN(C(=O)C4(OC6CCCCC6)CCN(c6cnnc(-c7ccccc7O)c6)CC4)C5)CC3)cc2)C(=O)N1` (racemic) [Example 121, rac-3-(4-(4-(2-(6-(4-(cyclohexyloxy)-1-(6-(2-hydroxyphenyl)pyridazin-4-yl)piperidine-4-carbonyl)-2,6-diazaspiro[3.3]heptan-2-yl)ethyl)piperidin-1-yl)phenyl)piperidine-2,6-dione]: on SMARCA2, half-maximal degradation (DC50) was put at 14.9 nM, the Dmax is 74.3% and the “Fold Selectivity SMARCA4/2” value stood at 671. Further, at SMARCA4, the greatest degradation seen (Dmax) came to 29.3%.

Turning to `O=C1CCC(c2ccc(N3CCC(F)(CCN4CC5(C4)CN(C(=O)C4(c6ccccc6)CCN(c6cnnc(-c7ccccc7O)c6)CC4)C5)CC3)cc2)C(=O)N1` (racemic) [Example 122, rac-(3R)-3-(4-{4-fluoro-4-[2-(6-{1-[6-(2-hydroxyphenyl)pyridazin-4-yl]-4-phenylpiperidine-4-carbonyl}-2,6-diazaspiro[3.3]heptan-2-yl)ethyl]piperidin-1-yl}phenyl)piperidine-2,6-dione], on SMARCA2, it took 9.13 nM to reach half-maximal degradation (DC50), the Dmax is 73.6% and the “Fold Selectivity SMARCA4/2” value was determined as 1095. This compound also showed a maximal degradation (Dmax) on SMARCA4 of 34.8%.

On to `CN(C(=O)C1(OC2CC2)CCN(c2cnnc(-c3ccccc3O)c2)CC1)C1CCN(CCC2CCN(c3ccc(C4CCC(=O)NC4=O)cc3)CC2)CC1` (racemic) [Example 124, rac-4-cyclopropoxy-N-{1-[2-(1-{4-[(3r)-2,6-dioxopiperidin-3-yl]phenyl}piperidin-4-yl)ethyl]piperidin-4-yl}-1-[6-(2-hydroxyphenyl)pyridazin-4-yl]-N-methylpiperidine-4-carboxamide], for which, at SMARCA2, the DC50 amounted to 11.3 nM, the Dmax worked out at 75.9% and the “Fold Selectivity SMARCA4/2” value is reported as 882. The compound also gave a maximal degradation (Dmax) at SMARCA4 of 25.1%.

Regarding `Cn1c(=O)n(C2CCC(=O)NC2=O)c2cccc(N3CCN(CC(=O)N4CC5(C4)CN(C(=O)C4(c6ccccc6)CCN(c6cnnc(-c7ccccc7O)c6)CC4)C5)CC3)c21` (racemic) [Example 126, rac-(3R)-3-(4-{4-[2-(6-{1-[6-(2-hydroxyphenyl)pyridazin-4-yl]-4-phenylpiperidine-4-carbonyl}-2,6-diazaspiro[3.3]heptan-2-yl)-2-oxoethyl]piperazin-1-yl}-3-methyl-2-oxo-2,3-dihydro-1H-1,3-benzodiazol-1-yl)piperidine-2,6-dione], at SMARCA2, half-maximal degradation (DC50) was put at 32.8 nM, the greatest degradation seen (Dmax) was 80.9% and the “Fold Selectivity SMARCA4/2” value was 304. Besides, the greatest degradation seen (Dmax) on SMARCA4 stood at 32.2%.

`O=C1CCC(c2ccc(N3CCC4(CC3)COC(CN3CC5(CCN(C(=O)C6(c7ccccc7)CCN(c7cnnc(-c8ccccc8O)c7)CC6)CC5)C3)C4)cc2)C(=O)N1` (racemic) [Example 127, rac-(3R)-3-(4-{3-[(7-{1-[6-(2-hydroxyphenyl)pyridazin-4-yl]-4-phenylpiperidine-4-carbonyl}-2,7-diazaspiro[3.5]nonan-2-yl)methyl]-2-oxa-8-azaspiro[4.5]decan-8-yl}phenyl)piperidine-2,6-dione]: at SMARCA2, the half-maximal degradation concentration (DC50) worked out at 32 nM, the Dmax is 64.2% and the “Fold Selectivity SMARCA4/2” value is 312. The Dmax on SMARCA4 came out at 56.1%.

For the compound `Cn1ccc(OC2(C(=O)N3CCC4(CC3)CN(CCC3CCN(c5ccc(C6CCC(=O)NC6=O)cc5)CC3)C4)CCN(c3cnnc(-c4ccccc4O)c3)CC2)n1` (racemic) [Example 128, rac-3-(4-(4-(2-(7-(1-(6-(2-hydroxyphenyl)pyridazin-4-yl)-4-((1-methyl-1h-pyrazol-3-yl)oxy)piperidine-4-carbonyl)-2,7-diazaspiro[3.5]nonan-2-yl)ethyl)piperidin-1-yl)phenyl)piperidine-2,6-dione], at SMARCA2, the DC50 came out at 11.1 nM, the Dmax was found to be 71.6% and the “Fold Selectivity SMARCA4/2” value was 899. The same compound came in with a maximal degradation (Dmax) at SMARCA4 of 39.1%.

Regarding `O=C1CC[C@H](c2ccc(N3CC[C@]4(C3)C[C@@H](N3CC5(CCN(C(=O)C6(c7ccccc7)CCN(c7cnnc(-c8ccccc8O)c7)CC6)CC5)C3)C4)cc2)C(=O)N1` (racemic) [Example 129, (3RS&)-3-{4-[(2rs,4sr)-2-(7-{1-[6-(2-hydroxyphenyl)pyridazin-4-yl]-4-phenylpiperidine-4-carbonyl}-2,7-diazaspiro[3.5]nonan-2-yl)-6-azaspiro[3.4]octan-6-yl]phenyl}piperidine-2,6-dione], at SMARCA2, the half-maximal degradation concentration (DC50) is 20.3 nM, the Dmax was 78.2% and the “Fold Selectivity SMARCA4/2” value is recorded as 6. On SMARCA4, this compound yielded a DC50 of 125 nM and a maximal degradation (Dmax) of 61%.

For `CN(C(=O)C1(c2ccccc2)CCN(c2cnnc(-c3ccccc3O)c2)CC1)C1CCN(CCC2CCN(c3cccc4c3n(C)c(=O)n4C3CCC(=O)NC3=O)CC2)CC1` (racemic) [Example 130, rac-N-{1-[2-(1-{1-[(3r)-2,6-dioxopiperidin-3-yl]-3-methyl-2-oxo-2,3-dihydro-1H-1,3-benzodiazol-4-yl}piperidin-4-yl)ethyl]piperidin-4-yl}-1-[6-(2-hydroxyphenyl)pyridazin-4-yl]-N-methyl-4-phenylpiperidine-4-carboxamide], on SMARCA2, the 50% degradation concentration (DC50) was 0.31 nM, the maximal degradation (Dmax) was determined as 96.4% and the “Fold Selectivity SMARCA4/2” value is given as 28. On SMARCA4, this compound had a DC50 of 8.72 nM and a Dmax of 84.4%.

On to `CC1(CCN2CC3(C2)CN(C(=O)C2(c4ccccc4)CCN(c4cnnc(-c5ccccc5O)c4)CC2)C3)CCN(c2ccc(C3CCC(=O)NC3=O)cc2)CC1` (racemic) [Example 131, rac-(3R)-3-(4-{4-[2-(6-{1-[6-(2-hydroxyphenyl)pyridazin-4-yl]-4-phenylpiperidine-4-carbonyl}-2,6-diazaspiro[3.3]heptan-2-yl)ethyl]-4-methylpiperidin-1-yl}phenyl)piperidine-2,6-dione], for which, on SMARCA2, it took 29.4 nM to reach half-maximal degradation (DC50), the greatest degradation seen (Dmax) was 71.3% and the “Fold Selectivity SMARCA4/2” value worked out at 340. Further, the Dmax on SMARCA4 amounted to 38.9%.

On to `O=C1CCC(c2ccc(N3CCC(CCN4CC5(C4)CN(C(=O)C4(c6ccccc6F)CCN(c6cnnc(-c7ccccc7O)c6)CC4)C5)CC3)cc2)C(=O)N1` (racemic) [Example 132, rac-(3R)-3-{4-[4-(2-{6-[4-(2-fluorophenyl)-1-[6-(2-hydroxyphenyl)pyridazin-4-yl]piperidine-4-carbonyl]-2,6-diazaspiro[3.3]heptan-2-yl}ethyl)piperidin-1-yl]phenyl}piperidine-2,6-dione], for which, on SMARCA2, the 50% degradation concentration (DC50) came to 10.2 nM, the Dmax is 71.6% and the “Fold Selectivity SMARCA4/2” value was 984. In addition, the greatest degradation seen (Dmax) at SMARCA4 is 15%.

As to `CN(C(=O)C1(c2ccc(F)cc2)CCN(c2cnnc(-c3ccccc3O)c2)CC1)C1CCN(CCC2CCN(c3ccc(C4CCC(=O)NC4=O)cc3)CC2)CC1` (racemic) [Example 134, rac-N-{1-[2-(1-{4-[(3R)-2,6-dioxopiperidin-3-yl]phenyl}piperidin-4-yl)ethyl]piperidin-4-yl}-4-(4-fluorophenyl)-1-[6-(2-hydroxyphenyl)pyridazin-4-yl]-n-methylpiperidine-4-carboxamide], at SMARCA2, it took 8.79 nM to reach half-maximal degradation (DC50), the Dmax is 87.1% and the “Fold Selectivity SMARCA4/2” value was found to be 1138. The compound also registered a maximal degradation (Dmax) on SMARCA4 of 31.1%.

For `O=C1CCC(c2c(F)cc(N3CCC(CN4CCC5(CC4)CN(C(=O)C4(Oc6ccccc6)CCN(c6cnnc(-c7ccccc7O)c6)CC4)C5)CC3)cc2F)C(=O)N1` (racemic) [Example 136, rac-(3R)-3-(2,6-difluoro-4-{4-[(2-{1-[6-(2-hydroxyphenyl)pyridazin-4-yl]-4-phenoxypiperidine-4-carbonyl}-2,7-diazaspiro[3.5]nonan-7-yl)methyl]piperidin-1-yl}phenyl)piperidine-2,6-dione], at SMARCA2, the DC50 came to 2.1 nM, the Dmax stood at 94% and the “Fold Selectivity SMARCA4/2” value was 8. At SMARCA4, this compound gave a half-maximal degradation concentration (DC50) of 17.8 nM and a Dmax of 84.2%.

As for `O=C1CCC(c2ccc(N3CCC4(CC3)CC(CN3CC5(CCN(C(=O)C6(c7ccccc7)CCN(c7cnnc(-c8ccccc8O)c7)CC6)CC5)C3)C4)cc2)C(=O)N1` (racemic) [Example 137, rac-(3R)-3-(4-{2-[(7-{1-[6-(2-hydroxyphenyl)pyridazin-4-yl]-4-phenylpiperidine-4-carbonyl}-2,7-diazaspiro[3.5]nonan-2-yl)methyl]-7-azaspiro[3.5]nonan-7-yl}phenyl)piperidine-2,6-dione], on SMARCA2, the 50% degradation concentration (DC50) amounted to 44.4 nM, the Dmax was determined as 66.3% and the “Fold Selectivity SMARCA4/2” value turned out to be 225. The same compound had a maximal degradation (Dmax) at SMARCA4 of 44.9%.

Regarding `O=C1CCC(c2ccc(N3CCC(CN4CC5(C4)CN(C(=O)C4(c6ccccc6)CCN(c6cnnc(-c7ccccc7O)c6)CC4)C5)CC3)c(F)c2F)C(=O)N1` (racemic) [Example 138, rac-(3R)-3-(2,3-difluoro-4-{4-[(6-{1-[6-(2-hydroxyphenyl)pyridazin-4-yl]-4-phenylpiperidine-4-carbonyl}-2,6-diazaspiro[3.3]heptan-2-yl)methyl]piperidin-1-yl}phenyl)piperidine-2,6-dione], at SMARCA2, it took 4.09 nM to reach half-maximal degradation (DC50), the Dmax was found to be 89% and the “Fold Selectivity SMARCA4/2” value came out at 9. At SMARCA4, this compound had a DC50 of 38.3 nM and a Dmax of 67.1%.

(Values after patent publication US20250051344A1, “BIFUNCTIONAL SELECTIVE DEGRADERS OF SMARCA2 AND THERAPEUTIC USES THEREOF” (Nurix Therapeutics, Inc., priority 2023, published 2025).)
